How the values were obtained:
[1] = biological target: T1, LXA4 specific binding sites of differentiated HL-60 cells (Homo sapiens, UniProt P25090); assay: 3H-LXA4 specific binding to differentiated HL-60 cells; details: for displacement of 3H-LXA4 specific binding: competition, competitor 300 nM where printed
T1 construct: endogenous in cells; host or cells: HL-60 cells differentiated with DMSO, retinoic acid or PMA; intact cells
T1 sequence (P25090 1-351): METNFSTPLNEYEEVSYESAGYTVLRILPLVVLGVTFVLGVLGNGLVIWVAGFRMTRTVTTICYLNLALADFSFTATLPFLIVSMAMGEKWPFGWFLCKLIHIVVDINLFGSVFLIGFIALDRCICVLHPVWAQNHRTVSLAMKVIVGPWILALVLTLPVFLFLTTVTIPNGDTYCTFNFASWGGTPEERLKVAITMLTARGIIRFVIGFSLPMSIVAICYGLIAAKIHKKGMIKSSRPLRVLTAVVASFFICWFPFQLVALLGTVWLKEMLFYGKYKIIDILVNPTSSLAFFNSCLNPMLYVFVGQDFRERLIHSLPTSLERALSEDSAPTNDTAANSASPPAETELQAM
Experimental: Preparation of [11,12-^3H]LXA4. Tritiation of 11,12-acetylenic LXA4 methyl ester was carried out under a custom tritiation service (NET-259:92-2326) by New England Nuclear (Boston, Mass.). Briefly, 11,12-acetylene methyl ester was characterized by UV absorbance and reverse-phase HPLC as in (Nicolaou, K. C. et al. (1985) J. Am. Chem. Soc. 107:7515) and exposed to tritium atmosphere in methylene chloride at room temperature. This incubation was stirred in the presence of Lindlar catalyst (1.0 mg from Fluka Chemicals) for˜1 h. The resulting mixture was stored in methanol and isolated using RP-HPLC. Tritiated products were chromatographed as methyl esters utilizing a gradient HPLC system equipped with a photodiode array rapid spectral detector (Serhan, C. N., Methods in Enzymology: Arachidonate Related Lipid Mediators, in Murphy R. C., Fitzpatrick, F. (eds.), vol. 187. Orlando, Fla., Academic, (1990), p. 167). This mixture contained both [11,12-^3H]LXA4 and [11,12-^3H]-11-trans-LXA4 methyl esters (˜1:3 ratio) as determined by coelution with synthetic standards. After RP-HPLC, fractions containing [11,12-^3H]LXA4 were collected, and extracted into ethyl acetate. The free acid was prepared by LiOH saponification (Fiore, S. et al. (1992) J. Biol. Chem. 267:16168). Material from these fractions, when injected into UV-electrochemical detection HPLC, gave greater than 90% of radioactivity associated with a tetraene-containing product that coeluted with synthetic LXA4. Materials that eluted with the retention time of authentic LXA4 in two HPLC systems were taken for binding experiments. The specific activity calculated for [11,12-^3H]LXA4 was 40.5 Ci/mmole.
Cell cultures and differentiation. HL-60 cells were seeded in RPMI medium supplemented with 100 U/ml penicillin, 100 μg/ml streptomycin, and 10% fetal calf serum (Hyclone, Logan, Utah), incubated at 37° C. with 5% CO2 atmosphere in 250 ml flasks. Individual flasks containing ˜[…] next received dimethyl sulfoxide (DMSO) (1.12% v/v, 120 h) or retinoic acid (RA) (1 μM, 120 h) or phorbol myristate acetate (PMA) (20 nM, 48 h). Before performing binding assays, cells were washed twice in phosphate buffered saline (PBS), Ca^2+- and Mg^2+-free, enumerated and suspended at 20×10^6 cells/ml in Tris buffer (10 mM), pH 7.4 (Fiore, S. et al.(1992) J. Biol. Chem. 267:16168). Nitro blue tetrazolium reduction was performed to monitor induction of polymorphonuclear phenotype as in (Imaizumi, M. and Breitman, T. R. (1986) Blood 67:1273), and cell adherence was determined for induction of macrophage-like phenotype (Collins, S. J. (1987) Blood 70:1273). Human umbilical vein endothelial cells (HUVEC) maintained in culture third passage were obtained from Dr. M. Gimbrone (Brigham and Women's Hospital Department of Pathology).
Ligand binding. ^3H-LXA4 and ^3H-LTB4 binding was performed essentially as in Fiore, S. et al.(1992) J. Biol. Chem. 267:16168. After suspending cells in Tris buffer 10 mM (pH 7.4, Ca^2+ 2.5 mM, Mg^2+ 1.2 mM), aliquots (0.5 ml) were incubated (20 min at 4° C.) with ^3H- ligands alone (0.3 nM) or in the presence of increasing concentrations of homoligands or other compounds (3-300 nM). The incubations were rapidly centrifuged (60 sec, 12,000 g) on silicon oil (d=1.028), and cell-associated radioactivity was determined by liquid scintillation counting (Wallac 1409, Pharmacia, Piscataway, N.J.). Binding experiments with HUVEC cells were performed in 12 well plates with 3.5×10^5 cells/well. After 10 min, wells were washed twice with PBS and cell-associated label was recovered by adding glacial acetic acid (0.5 ml). Results obtained from these assays were submitted for further analysis using the Ligand program (Elsevier-Biosoft, Cambridge, UK).

PMA-treated HL-60 cells = assay: Lipoxin metabolism / bio-half-life assay with phorbol ester-treated HL-60 cells; assay type: in vitro ADME, human; details: at times up to two hours
Experimental: HL-60 cells were purchased from American Type Culture Collection (Rockville, Md.), and other cell culture reagents were from GIBCO (Grand Island, N.Y.). Versene (EDTA) was from Whittaker Bioproducts (Walkersville, Md.). Synthetic 11,12-acetylenic LXA4 methyl ester and LXs were from Cascade Biochemical (Reading, U.K.). 15(S)-15-m-PGE1, PGE1, and 5-HETE were from Cayman Chemical Co. (Ann Arbor, Mich.). [11,12-^3H]LXA4 was prepared from 11,12-acetylenic LXA4 using Lindlar catalyst as a custom tritiation (NET-259, lot 0 2793-275, New England Nuclear, Boston, Mass.). Tritiated products were isolated using RP-HPLC (Fiore et al. (1992) J. Biol. Chem. 267:16168; Serhan, C. N. (1990) Meth. Enzymol. 187:167). Methoxyamine and NAD were from Sigma Chemical Company (St. Louis, Mo.). Manganese dioxide and Adams reagent were from Aldrich Chemical Co. (Milwaukee, Wis.).
Human PMN were obtained from healthy volunteers by gradient centrifugation of heparinized fresh venous blood (Böyum, A. ([…]) Scand. J. Clin. Lab. Invest. 21:77). HL-60 cells were seeded in RPMI supplemented with penicillin (100 U/ml), streptomycin (100 μ/ml), fetal bovine serum (10%) (Hyclone, Logan, Utah) and incubated (37° C. with 5% CO2 atmosphere) in plastic 250 ml flasks. Individual flasks containing […] HL-60 cells/ml were incubated in the presence or absence of phorbol 12-myristate 13-acetate (PMA) (10 or 16 nM, 24-27 h) and adherence was monitored for induction of macrophage-like phenotype as in Collins, S. J. (1987) Blood 70:1233. […]
Incubations with eicosanoids were stopped with cold methanol containing either PGB2 or 5-HETE as internal standards (5-HETE was used when 15-oxo-ETE was quantified). […] Formation of 15-oxo-ETE by 100,000 g supernatants (cf. Agins, A. P. et al. (1987) Agents Actions 21:397; Xun, C-Q. et al.(1991) Biochem. J. 279:553; and Sok, D-E. et al. (1988) Biochem. Biophys. Res. Commun. 156:524) was quantified after RP-HPLC using an ODS column (4.6 mm×25 cm) eluted with methanol/H2O/acetic acid (70:30:0.01, v/v/v) monitored at 280 nm with a flow rate of 1 ml/min. […] On-line spectra were recorded using a diode array detector (Hewlett-Packard 1040M series II) equipped with HPLC^3D ChemStation software (DOS series). […]
The “bio-half-life” of compounds 1-8 was assessed using phorbol ester-treated human promyelocytic leukemia (HL-60) cells as described in Example 2. […]

A549 cells = assay: A549 cell proliferation, MTT assay; assay type: cell-based, human; details: for % inhibition: 10^−7 M, 72 hours at 37° C., mean ± SEM, 3 to 7 experiments
Experimental: A microculture 3,(4,5-dimethylthiazoyl-2-yl) 2,5 (diphenyl-tetrazolium bromide) (MTT) assay, (Marshall, N. J., et al. (1995) A critical assessment of the use of microculture tetrazolium assays to measure cell growth and function. Growth Regul. 5: 69-84.), was used to examine the actions of LXs and other eicosanoids on cell proliferation. A549 cells and fibroblasts from exponential-phase maintenance cultures were counted and dispensed within replicate 96-well culture plates in 100 μl volumes of medium (˜2000 cells/well). Following 24 hours at 37° C., the culture medium was removed, and fresh medium (100 μl) containing either the compounds (5-1000 nM) or vehicle (medium plus 0.15% ethanol) was added to 4 replicates for each condition studied and the culture plates were then incubated for up to 96 hours at 37° C. in a 5% CO2 atmosphere. At the end of this period, 25 μl of freshly prepared MTT in HBSS (5 mg/ml) was added to the wells and the plates were incubated for 4 hours at 37° C. Dye solution was aspirated, wells were washed once with HBSS and dye taken up by the cells was extracted in 100 μl of isopropyl alcohol:1 N HCl (96:4, v/v) and quantitated at 570 nm using a microplate reader (Molecular Devices, Menlo Park, Calif.). In some experiments, cells were grown in 12-well culture plates, treated as above and enumerated using a Neubauer hemocytometer. Viability was assessed routinely using trypan blue exclusion assay. For the A549 cells and fibroblasts, a linear relation was established for the MTT values and cell number within the range of the experiments shown (r=0.995, P<0.005). A549 cells grown for 72 hours in the presence of the compounds (5-1000 nM) or vehicle (0.15% EtOH) were lysed with 0.25 N NaOH and the cellular protein content was determined by applying the Bio-Rad (Richmond, Calif.) microassay method using bovine serum albumin as standard. The mean cellular protein content in resting A549 cells was 46.6±1.5 pg/cell.

| Compound | displacement of 3H-LXA4 specific binding [1] | % inhibition (A549 cells) [%] | further results |
| --- | --- | --- | --- |
| COc1ccc(/C=C/CCCCOc2cccc(OCCCCC(=O)O)c2CCC(=O)O)cc1 [ONO-4057] | did not displace |  |  |
| cyclohexyl-LXA4 [compound 4] |  |  | recovery in the incubation medium (bio-half-life) (PMA-treated HL-60 cells): quantitatively recovered |
| CCCCC[C@@H](O)C(O)/C=C/C=C/C=C\C=C\C(O)CCCC(=O)O (stereo in doubt) [15-epi-LXB4, 15R-5,14,15-trihydroxy-6,10,12-trans-8-cis-eicosatetraenoic acid] |  | 79.3 ± 0.3 | inhibition proliferation (A549 cells; equimolar levels (100 nM), Table 1): ~80% |
| trihydroxyheptanoic acid (methyl ester) | Neither LXB4, LTB4, nor trihydroxyheptanoic acid (methyl ester) (300 nM) were able to displace |  |  |
| CCCCC/C=C\C\C=C/C=C/C=C/[C@@H](SC[C@H](NC(=O)CC[C@H](N)C(=O)O)C(=O)NCC(=O)O)[C@@H](O)CCCC(=O)O [LTC4] |  |  | decrease of 3H-LXA4 specific binding ([1]; added in 3 log molar excess): ~30% |
| CCCCC[C@@H](O)/C=C/C=C\C=C\C=C\C(O)C(O)CCCC(=O)O (stereo in doubt) [15-epi-LXA4, 15R-5,6,15-trihydroxy-7,9,13-trans-11-cis-eicosatetraenoic acid] |  | 20.1 ± 1.9 | inhibition of A549 cell growth compared with LXA4 (A549 cells; equimolar levels (100 nM)): to a similar extent as LXA4 |
